How the values were obtained:
Type in all cases: physicochemical
[1] = Solubility test of compound in safe solvent; settings: 23° C., visual
Experimental: (2) Solubility Test of Compound in Safe Solvent
(§1) The solubility of the compound in PGME and PGMEA was evaluated according to the following standard using the dissolution amount in each solvent. For the measurement of the dissolution amount, the compound was precisely weighed in a test tube at 23° C.; and the target solvent was added to the compound so that a predetermined concentration of the liquid to be obtained was set; a ultrasonic wave was applied to the liquid in an ultrasonic washing machine for 30 minutes; and the state of the resulting liquid was visually evaluated.
A: 5.0% by weight≦dissolution amount
B: 3.0% by weight≦dissolution amount<5.0% by weight
C: dissolution amount<3.0% by weight

[2] = Solubility of compound in methyl ethyl ketone (MEK); settings: dissolution amount in MEK at 23° C., visual
Experimental: (1) Solubility of Compound in Methyl Ethyl Ketone (MEK)
as §1, with “MEK” for “PGME and PGMEA”, “MEK at 23° C.” for “each solvent.”
Evaluation A: 50% by weight or more
Evaluation B: 10% by weigh or more and less than 50% by weight
Evaluation C: less than 10% by weight

[3] = Thermal decomposition temperature by DSC; settings: 10° C./min to 500° C., nitrogen gas stream
Experimental: (3) Thermal Decomposition Temperature
The apparatus EXSTAR6000DSC (trade name) manufactured by SII NanoTechnology Inc. was used. About 5 mg of each sample was placed in a non-sealed container made of aluminum, and the temperature was raised to 500° C. at the rate of temperature rise of 10° C./min in a nitrogen gas stream (30 mL/min). The temperature corresponding to a descending peak appeared in the baseline was defined as the thermal decomposition temperature.

[4] = Glass transition temperature by DSC; settings: 10° C./min to 300° C., second heating after quench, nitrogen gas stream
Experimental: (4) Glass Transition Temperature
The apparatus EXSTAR6000DSC (trade name) manufactured by SII NanoTechnology Inc. was used. About 5 mg of each sample was placed in a non-sealed container made of aluminum, and the temperature was raised to 300° C. at the rate of temperature rise of 10° C./min in a nitrogen gas stream (30 mL/min). After the non-sealed container made of aluminum was quenched, again the temperature was raised to 300° C. at the rate of temperature rise of 10° C./min in a nitrogen gas stream (30 mL/min), thereby performing DSC measurement. The temperature corresponding to the middle point (where the specific heat was changed into the half) of a region in which a discontinuous portion appeared in the baseline was defined as the glass transition point.

Row | Solubility test of compound in safe solvent PGME [1] | Solubility test of compound in safe solvent PGMEA [1] | thermal decomposition temperature [3] | glass transition point [4] | Compound | solubility in MEK [2]
1 | A (A: 5.0% by weight≦dissolution amount) | A (A: 5.0% by weight≦dissolution amount) | 250 °C | 130 °C | Oc1ccc2c(C(c3ccc(-c4ccccc4)cc3)c3c(O)ccc4cc(O)ccc34)c(O)ccc2c1 [BisN-1] | B (Evaluation B: 10% by weigh or more and less than 50% by weight)
2 | A (A: 5.0% by weight≦dissolution amount) | A (A: 5.0% by weight≦dissolution amount) | 250 °C | 130 °C | Oc1ccc2ccc(O)c(C(c3ccc(-c4ccccc4)cc3)c3c(O)ccc4ccc(O)cc34)c2c1 [BisN-2] | B (Evaluation B: 10% by weigh or more and less than 50% by weight)
3 | A (A: 5.0% by weight≦dissolution amount) | A (A: 5.0% by weight≦dissolution amount) | 250 °C | 130 °C | Oc1cccc2c(O)c(C(c3ccc(-c4ccccc4)cc3)c3ccc4c(O)cccc4c3O)ccc12 [BisN-3] | B (Evaluation B: 10% by weigh or more and less than 50% by weight)
4 | A (A: 5.0% by weight≦dissolution amount) | A (A: 5.0% by weight≦dissolution amount) | 250 °C | 130 °C | Oc1ccc2c(O)cccc2c1C(c1ccc(-c2ccccc2)cc1)c1c(O)ccc2c(O)cccc12 [BisN-4] | B (Evaluation B: 10% by weigh or more and less than 50% by weight)
5 | A (A: 5.0% by weight≦dissolution amount) | A (A: 5.0% by weight≦dissolution amount) | 250 °C | 130 °C | Oc1ccc2ccc(C(c3ccc(-c4ccccc4)cc3)c3ccc4ccc(O)cc4c3O)c(O)c2c1 [BisN-5] | B (Evaluation B: 10% by weigh or more and less than 50% by weight)
6 | A (A: 5.0% by weight≦dissolution amount) | A (A: 5.0% by weight≦dissolution amount) | 250 °C | 130 °C | Oc1cc2ccccc2c(C(c2ccc(-c3ccccc3)cc2)c2c(O)c(O)cc3ccccc23)c1O [BisN-6] | B (Evaluation B: 10% by weigh or more and less than 50% by weight)
7 | A (A: 5.0% by weight≦dissolution amount) | A (A: 5.0% by weight≦dissolution amount) | 255 °C | 135 °C | Oc1ccc2c(C(c3cccc4ccccc34)c3c(O)ccc4cc(O)ccc34)c(O)ccc2c1 [BisN-7] | B (Evaluation B: 10% by weigh or more and less than 50% by weight)
8 | A (A: 5.0% by weight≦dissolution amount) | A (A: 5.0% by weight≦dissolution amount) | 210 °C | 100 °C | Oc1ccc2c(C3(c4c(O)ccc5cc(O)ccc45)CCCCC3)c(O)ccc2c1 [BisN-10] | B (Evaluation B: 10% by weigh or more and less than 50% by weight)
9 | A (A: 5.0% by weight≦dissolution amount) | A (A: 5.0% by weight≦dissolution amount) | 250 °C | 135 °C | Oc1ccc2c(C3(c4c(O)ccc5cc(O)ccc45)c4ccccc4-c4ccccc43)c(O)ccc2c1 [BisN-11] | B (Evaluation B: 10% by weigh or more and less than 50% by weight)
10 | A (A: 5.0% by weight≦dissolution amount) | A (A: 5.0% by weight≦dissolution amount) | 245 °C | 130 °C | Oc1ccc2c(C(c3ccc(C(c4c(O)ccc5cc(O)ccc45)c4c(O)ccc5cc(O)ccc45)cc3)c3c(O)ccc4cc(O)ccc34)c(O)ccc2c1 [BisN-12] | B (Evaluation B: 10% by weigh or more and less than 50% by weight)
11 | A (A: 5.0% by weight≦dissolution amount) | A (A: 5.0% by weight≦dissolution amount) | 245 °C | 130 °C | Oc1ccc2c(C(c3ccc(-c4ccc(C(c5c(O)ccc6cc(O)ccc56)c5c(O)ccc6cc(O)ccc56)cc4)cc3)c3c(O)ccc4cc(O)ccc34)c(O)ccc2c1 [BisN-13] | B (Evaluation B: 10% by weigh or more and less than 50% by weight)
12 | A (A: 5.0% by weight≦dissolution amount) | A (A: 5.0% by weight≦dissolution amount) | 245 °C | 130 °C | Oc1ccc2c(C(c3cc(C(c4c(O)ccc5cc(O)ccc45)c4c(O)ccc5cc(O)ccc45)cc(C(c4c(O)ccc5cc(O)ccc45)c4c(O)ccc5cc(O)ccc45)c3)c3c(O)ccc4cc(O)ccc34)c(O)ccc2c1 [BisN-14] | B (Evaluation B: 10% by weigh or more and less than 50% by weight)
13 | – | – | 375 °C | 132 °C | OCCOc1ccc2c3c(ccc2c1)Oc1ccc2cc(OCCO)ccc2c1C3c1ccc(-c2ccccc2)cc1 [Example 29] | –
14 | A (A: 5.0% by weight≦dissolution amount) | A (A: 5.0% by weight≦dissolution amount) | – | – | Cc1cc(C(c2ccc3ccc(C(c4cc(C)c(O)c(C)c4C)c4cc(C)c(O)c(C)c4C)cc3c2)c2cc(C)c(O)c(C)c2C)c(C)c(C)c1O [TetP-1, reference compound] | –

Row | Compound | Solubility test of compound in safe solvent PGME [1] | Solubility test of compound in safe solvent PGMEA [1] | thermal decomposition temperature [3] | glass transition point [4] | solubility in MEK [2]
15 | Oc1ccc2c(C(c3c(O)ccc4cc(O)ccc34)c3cc4ccccc4c4ccccc34)c(O)ccc2c1 [BisN-8] | A (A: 5.0% by weight≦dissolution amount) | A (A: 5.0% by weight≦dissolution amount) | 255 °C | 140 °C | B (Evaluation B: 10% by weigh or more and less than 50% by weight)
16 | Oc1ccc2c(C(c3c(O)ccc4cc(O)ccc34)c3ccc4ccc5cccc6ccc3c4c56)c(O)ccc2c1 [BisN-9] | A (A: 5.0% by weight≦dissolution amount) | A (A: 5.0% by weight≦dissolution amount) | 260 °C | 140 °C | B (Evaluation B: 10% by weigh or more and less than 50% by weight)
17 | Oc1cc(O)c2cc1C(c1ccc(C3CCCCC3)cc1)c1cc(c(O)cc1O)C(c1ccc(C3CCCCC3)cc1)c1cc(c(O)cc1O)C(c1ccc(C3CCCCC3)cc1)c1cc(c(O)cc1O)C2c1ccc(C2CCCCC2)cc1 (stereo not shown) [CR-1, reference compound] | B (B: 3.0% by weight≦dissolution amount<5.0% by weight) | C (C: dissolution amount<3.0% by weight) | – | – | –
